Measured values taken from US8901118B2, “Compounds and methods for kinase modulation, and indications therefor” (Plexxikon Inc., priority 2010, dated 2014).

Tests used:
Fms kinase = Fms kinase (Homo sapiens, UniProt P07333); assay: Fms kinase biochemical activity assay (AlphaScreen, biotin-(E4Y)10 phosphorylation); settings: 100 μM ATP; read-out: Biochemical Inhibition IC50 Fms
Method in brief: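 Fms kinase (1 ng/well) phosphorylating 30 nM biotin-(E4Y)10 with 100 μM ATP in 25 mM Hepes pH 7.5, MgCl2/MnCl2, 5% DMSO, 20 min at 30 °C. Phosphotyrosine detected by AlphaScreen streptavidin donor and PY20 acceptor beads; IC50 from signal versus compound concentration.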

Flt-3 kinase = biological target: T1, Flt-3 kinase (Homo sapiens, UniProt P36888); assay: Flt-3 kinase biochemical activity assay (AlphaScreen); settings: 100 μM ATP; read-out: Biochemical Inhibition IC50 Flt3
T1 sequence (P36888 27-993): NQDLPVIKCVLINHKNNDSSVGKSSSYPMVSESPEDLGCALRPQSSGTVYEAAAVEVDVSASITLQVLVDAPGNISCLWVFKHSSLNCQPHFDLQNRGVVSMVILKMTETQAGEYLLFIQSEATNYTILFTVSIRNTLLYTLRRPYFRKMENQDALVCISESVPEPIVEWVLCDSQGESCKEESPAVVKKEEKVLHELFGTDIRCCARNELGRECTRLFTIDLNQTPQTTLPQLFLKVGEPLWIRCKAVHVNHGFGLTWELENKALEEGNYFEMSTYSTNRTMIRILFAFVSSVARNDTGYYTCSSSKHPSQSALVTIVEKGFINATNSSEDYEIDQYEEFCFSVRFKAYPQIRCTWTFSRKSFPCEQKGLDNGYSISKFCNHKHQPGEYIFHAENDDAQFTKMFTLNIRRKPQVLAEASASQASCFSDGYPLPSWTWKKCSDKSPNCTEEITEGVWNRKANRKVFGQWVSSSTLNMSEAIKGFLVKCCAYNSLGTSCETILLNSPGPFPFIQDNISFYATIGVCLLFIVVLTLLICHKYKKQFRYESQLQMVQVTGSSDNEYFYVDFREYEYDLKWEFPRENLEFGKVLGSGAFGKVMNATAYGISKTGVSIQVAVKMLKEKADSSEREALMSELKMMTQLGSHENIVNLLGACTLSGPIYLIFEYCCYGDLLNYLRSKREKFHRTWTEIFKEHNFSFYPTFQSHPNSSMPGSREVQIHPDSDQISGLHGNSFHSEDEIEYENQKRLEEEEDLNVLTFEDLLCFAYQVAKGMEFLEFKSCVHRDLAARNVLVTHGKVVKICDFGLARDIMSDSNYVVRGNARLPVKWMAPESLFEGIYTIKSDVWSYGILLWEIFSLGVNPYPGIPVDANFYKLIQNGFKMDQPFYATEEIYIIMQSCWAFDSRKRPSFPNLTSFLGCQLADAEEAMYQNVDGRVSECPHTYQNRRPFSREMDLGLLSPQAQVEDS
Protocol: In one assay the biochemical activity IC50 values are determined with respect to inhibition of Flt-3 kinase activity, where inhibition of phosphorylation of a peptide substrate is measured as a function of compound concentration. Compounds to be tested, dissolved in DMSO (1 μL), are added to a white 384-well plate (Costar #3705). Working stocks of Flt-3 kinase (Invitrogen), biotin-(E4Y)10 substrate (Upstate Biotech, Cat#12-440), and ATP (Sigma, Cat#A-3377) are prepared in 25 mM Hepes pH 7.5, 5 mM MgCl2, 5 mM MnCl2, 1 mM DTT, and 0.01% Tween-20. All components are added to the 384-well plate for a final concentration of 1 ng/well Flt-3, 30 nM biotin-(E4Y)10 and 100 μM ATP in a volume of 20 μL. Each sample is at 5% DMSO. The plate is then incubated for 1 hour at room temperature. Just before use, working stocks of donor and acceptor beads from the AlphaScreen PY20 Detection Kit (PerkinElmer, Cat#676601M) are prepared in 25 mM Hepes pH 7.5, pH 7.4, 100 mM EDTA. 0.3% BSA. To stop the reaction, the plate is uncovered in the dark and 5 μL of Donor Beads solution (Streptavidin beads) is added to each well. The plate is incubated at room temperature for 20 minutes. Five microliters of Acceptor Beads solution (PY20 coated beads) are then added to each well. The final concentration of each bead is 10 μg/mL. The plates are incubated at room temperature for 60 minutes. Fluorescence signal is recorded on the Envision reader. Phosphorylated substrate results in binding of the PY20 antibody and association of the donor and acceptor beads such that signal correlates with kinase activity. The signal vs. compound concentration is used to determine the IC50.

Sequence of Fms kinase (P07333 20-972): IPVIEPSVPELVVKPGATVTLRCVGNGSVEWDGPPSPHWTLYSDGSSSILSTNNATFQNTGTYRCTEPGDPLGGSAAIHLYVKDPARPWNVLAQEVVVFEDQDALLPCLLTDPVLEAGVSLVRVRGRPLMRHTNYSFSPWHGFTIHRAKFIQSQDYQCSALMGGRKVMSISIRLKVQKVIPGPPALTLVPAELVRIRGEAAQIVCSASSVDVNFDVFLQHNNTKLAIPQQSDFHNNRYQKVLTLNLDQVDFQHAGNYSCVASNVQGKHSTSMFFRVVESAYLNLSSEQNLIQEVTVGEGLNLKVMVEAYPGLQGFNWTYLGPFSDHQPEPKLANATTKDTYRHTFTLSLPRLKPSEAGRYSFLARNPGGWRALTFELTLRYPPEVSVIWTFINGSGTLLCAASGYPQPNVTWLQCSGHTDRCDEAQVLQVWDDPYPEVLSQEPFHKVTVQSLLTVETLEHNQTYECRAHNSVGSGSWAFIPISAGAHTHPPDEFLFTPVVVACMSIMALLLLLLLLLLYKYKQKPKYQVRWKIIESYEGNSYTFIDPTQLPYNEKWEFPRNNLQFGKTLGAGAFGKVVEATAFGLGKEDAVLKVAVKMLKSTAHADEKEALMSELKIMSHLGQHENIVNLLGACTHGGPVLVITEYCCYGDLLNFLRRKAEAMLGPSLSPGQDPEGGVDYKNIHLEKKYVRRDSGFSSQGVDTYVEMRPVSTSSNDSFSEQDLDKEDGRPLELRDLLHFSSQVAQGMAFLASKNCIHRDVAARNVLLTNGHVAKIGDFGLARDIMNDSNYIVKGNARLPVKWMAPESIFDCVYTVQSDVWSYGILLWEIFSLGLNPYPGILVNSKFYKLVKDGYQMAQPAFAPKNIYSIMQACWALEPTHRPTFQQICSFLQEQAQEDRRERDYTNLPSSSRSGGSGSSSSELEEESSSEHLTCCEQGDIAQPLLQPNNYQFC

Compound | IC50 (Fms kinase) [nM] | IC50 (Flt-3 kinase) [nM]
CCOc1ccc(Nc2ccc(Cc3c[nH]c4ncnc(OC)c34)c(F)n2)cn1 [Compound P-4005, (6-Ethoxy-pyridin-3-yl)-[6-fluoro-5-(4-methoxy-7H-pyrrolo[2,3-d]pyrimidin-5-ylmethyl)-pyridin-2-yl]-amine] | < 10 | < 100
CCOc1ccc(Nc2ccc(Cc3c[nH]c4ncnc(C)c34)c(F)n2)cn1 [Compound P-4006, (6-Ethoxy-pyridin-3-yl)-[6-fluoro-5-(4-methyl-7H-pyrrolo[2,3-d]pyrimidin-5-ylmethyl)-pyridin-2-yl]-amine] | < 10 | < 100
CCc1ccc(Nc2ccc(Cc3c[nH]c4ncnc(OC)c34)c(F)n2)cn1 [Compound P-4007, (6-Ethyl-pyridin-3-yl)-[6-fluoro-5-(4-methoxy-7H-pyrrolo[2,3-d]pyrimidin-5-ylmethyl)-pyridin-2-yl]-amine] | < 10 | < 100
CCOc1ccc(Nc2ccc(Cc3c[nH]c4ncnc(OCCOC)c34)c(F)n2)cn1 [Compound P-4008, (6-Ethoxy-pyridin-3-yl)-{6-fluoro-5-[4-(2-methoxy-ethoxy)-7H-pyrrolo[2,3-d]pyrimidin-5-ylmethyl]-pyridin-2-yl}-amine] | < 10 | < 100
CCc1ccc(Nc2ccc(Cc3c[nH]c4ncnc(C)c34)c(F)n2)cn1 [Compound P-4009, (6-Ethyl-pyridin-3-yl)-[6-fluoro-5-(4-methyl-7H-pyrrolo[2,3-d]pyrimidin-5-ylmethyl)-pyridin-2-yl]-amine] | < 10 | < 100
COc1ncnc2[nH]cc(Cc3ccc(Nc4ccc(C)nc4)nc3F)c12 [Compound P-4010, [6-Fluoro-5-(4-methoxy-7H-pyrrolo[2,3-d]pyrimidin-5-ylmethyl)-pyridin-2-yl]-(6-methyl-pyridin-3-yl)-amine] | < 10 | < 1000
CCn1cc(Nc2ccc(Cc3c[nH]c4ncnc(OC)c34)c(F)n2)cn1 [Compound P-4011, (1-Ethyl-1H-pyrazol-4-yl)-[6-fluoro-5-(4-methoxy-7H-pyrrolo[2,3-d]pyrimidin-5-ylmethyl)-pyridin-2-yl]-amine] | < 10 | < 1000
CCOc1ncnc2[nH]cc(Cc3ccc(Nc4cnn(CC)c4)nc3F)c12 [Compound P-4012, [5-(4-Ethoxy-7H-pyrrolo[2,3-d]pyrimidin-5-ylmethyl)-6-fluoro-pyridin-2-yl]-(1-ethyl-1H-pyrazol-4-yl)-amine] | < 10 | < 1000
CCn1cc(Nc2ccc(Cc3c[nH]c4ncnc(C)c34)c(F)n2)cn1 [Compound P-4013, (1-Ethyl-1H-pyrazol-4-yl)-[6-fluoro-5-(4-methyl-7H-pyrrolo[2,3-d]pyrimidin-5-ylmethyl)-pyridin-2-yl]-amine] | < 10 | > 1000
CCn1cc(Nc2ccc(Cc3c[nH]c4ncnc(OCCOC)c34)c(F)n2)cn1 [Compound P-4014, (1-Ethyl-1H-pyrazol-4-yl)-{6-fluoro-5-[4-(2-methoxy-ethoxy)-7H-pyrrolo[2,3-d]pyrimidin-5-ylmethyl]-pyridin-2-yl}-amine] | < 10 | < 1000
COCCOc1ncnc2[nH]cc(Cc3ccc(Nc4ccc(C)nc4)nc3F)c12 [Compound P-4015, {6-Fluoro-5-[4-(2-methoxy-ethoxy)-7H-pyrrolo[2,3-d]pyrimidin-5-ylmethyl]-pyridin-2-yl}-(6-methyl-pyridin-3-yl)-amine] | < 100 | > 1000
CCc1ccc(Nc2ccc(Cc3c[nH]c4ncnc(OCCOC)c34)c(F)n2)cn1 [Compound P-4016, (6-Ethyl-pyridin-3-yl)-{6-fluoro-5-[4-(2-methoxy-ethoxy)-7H-pyrrolo[2,3-d]pyrimidin-5-ylmethyl]-pyridin-2-yl}-amine] | < 10 | < 10
CCOc1ncnc2[nH]cc(Cc3ccc(Nc4ccc(C)nc4)nc3F)c12 [Compound P-4017, [5-(4-Ethoxy-7H-pyrrolo[2,3-d]pyrimidin-5-ylmethyl)-6-fluoro-pyridin-2-yl]-(6-methyl-pyridin-3-yl)-amine] | < 10 | < 100
CCOc1ncnc2[nH]cc(Cc3ccc(Nc4ccc(OC)nc4)nc3F)c12 [Compound P-4018, [5-(4-Ethoxy-7H-pyrrolo[2,3-d]pyrimidin-5-ylmethyl)-6-fluoro-pyridin-2-yl]-(6-methoxy-pyridin-3-yl)-amine] | < 10 | < 100
COCCOc1ncnc2[nH]cc(Cc3ccc(Nc4ccc(OC)nc4)nc3F)c12 [Compound P-4019, {6-Fluoro-5-[4-(2-methoxy-ethoxy)-7H-pyrrolo[2,3-d]pyrimidin-5-ylmethyl]-pyridin-2-yl}-(6-methoxy-pyridin-3-yl)-amine] | < 10 | < 100
CCOc1ncnc2[nH]cc(Cc3ccc(Nc4ccc(Br)nc4)nc3F)c12 [Compound P-4020, (6-Bromo-pyridin-3-yl)-[5-(4-ethoxy-7H-pyrrolo[2,3-d]pyrimidin-5-ylmethyl)-6-fluoro-pyridin-2-yl]-amine] | < 10 | < 100
CCOc1ncnc2[nH]cc(Cc3ccc(Nc4cccnc4)nc3F)c12 [Compound P-4021, [5-(4-Ethoxy-7H-pyrrolo[2,3-d]pyrimidin-5-ylmethyl)-6-fluoro-pyridin-2-yl]-pyridin-3-yl-amine] | < 100 | > 1000
COc1ccc(Nc2ccc(C(=O)c3c[nH]c4ncnc(C5CC5)c34)c(F)n2)cn1 [Compound P-4022, (4-cyclopropyl-7H-pyrrolo[2,3-d]pyrimidin-5-yl)-[2-fluoro-6-(6-methoxy-pyridin-3-ylamino)-pyridin-3-yl]-methanone] | < 100 | < 100
COc1ccc(Nc2ccc(Cc3c[nH]c4ncnc(C5CC5)c34)c(F)n2)cn1 [Compound P-4023, [5-(4-cyclopropyl-7H-pyrrolo[2,3-d]pyrimidin-5-ylmethyl)-6-fluoro-pyridin-2-yl]-(6-methoxy-pyridin-3-yl)-amine] | < 10 | < 1000
CCOc1ccc(Nc2ccc(C(=O)c3c[nH]c4ncnc(OC)c34)c(F)n2)cn1 [Compound P-4024, [6-(6-Ethoxy-pyridin-3-ylamino)-2-fluoro-pyridin-3-yl]-(4-methoxy-7H-pyrrolo[2,3-d]pyrimidin-5-yl)-methanone] | < 1000 | < 100
CCOc1ncnc2[nH]cc(C(=O)c3ccc(Nc4ccc(OC)nc4)nc3F)c12 [Compound P-4025, (4-Ethoxy-7H-pyrrolo[2,3-d]pyrimidin-5-yl)-[2-fluoro-6-(6-methoxy-pyridin-3-ylamino)-pyridin-3-yl]-methanone] | < 1000 | < 1000
CCOc1ccc(Nc2ccc(Cc3c[nH]c4ncnc(C5CC5)c34)c(F)n2)cn1 [Compound P-4026, [5-(4-Cyclopropyl-7H-pyrrolo[2,3-d]pyrimidin-5-ylmethyl)-6-fluoro-pyridin-2-yl]-(6-ethoxy-pyridin-3-yl)-amine] | < 10 | < 100
CCOc1ccc(Nc2ccc(C(=O)c3c[nH]c4ncnc(C5CC5)c34)c(F)n2)cn1 [Compound P-4027, (4-Cyclopropyl-7H-pyrrolo[2,3-d]pyrimidin-5-yl)-[6-(6-ethoxy-pyridin-3-ylamino)-2-fluoro-pyridin-3-yl]-methanone] | < 100 | < 10
